Molecular target: T1, AAK1 (full-length human protein) (Homo sapiens, UniProt Q2M2I8)
T1 construct: NP_055726.2
Test: P81 filter plate assay
Assay type: biochemical
Procedure: Compounds were serially diluted into a Labcyte LDV plate (Labcyte, cat# LP-0200) using a Mutiprobe (PerkinElmer) and Biomek FX (Beckman Coulter) so that the highest compound concentration was at 96 μM. Compounds were then pinged (75 nL per well) into a Greiner 384-well reaction plate (Greiner, #781076) using an ECHO 550 Liquid Handler (Labcyte). A total of 12 μl reaction buffer (IMAP buffer containing Tween and DTT, from Molecular Devices) was then added to each well of columns 1 and 13 for the negative controls and 12 μl of 2×AAK1 (0.2 nM full-length human protein, NCBI accession no. NP_055726.2) was added to the remaining wells. Enzyme was then pre-incubated with compound for 10 minutes at RT. Reactions were initiated upon Minitrak (PerkinElmer) addition of 12 μl substrate mix containing 2× Mu2 (0.2 μM, full length human protein), 2× cold ATP (2 μM), and 1.3 μCi of hot ^33P-ATP. Reactions proceeded for one hour at RT. Meanwhile, Millipore 384-well P81 filter plates (Millipore, catalog # MZPHN0W10) were placed on a plate washer (Zoom Z W, from Titertek) and pre-wet with 50 μl 1% phosphoric acid. Kinase reactions were then stopped upon addition of 24 μl of 2% phosphoric acid to each well and the Minitrak was then used to transfer 40 μl from each well into the pre-wet Millipore 384-well P81 filter plates. Reaction mixtures were incubated for 10 minutes at RT in the P81 plates, followed by washing five times with 100 μl/well of 1% phosphoric acid using the Zoom filter washer. The bottom of each filter plate was sealed followed by addition of 20 μl Microscint 40 to each well, sealing the top of the plates with Flashplate cover, and then waiting one hour until reading on the TopCount (PerkinElmer).

[1] = pyrazolo[1,5-a]pyrimidine-based inhibitors

T1 sequence (Q2M2I8 1-863 isoform Q2M2I8-2): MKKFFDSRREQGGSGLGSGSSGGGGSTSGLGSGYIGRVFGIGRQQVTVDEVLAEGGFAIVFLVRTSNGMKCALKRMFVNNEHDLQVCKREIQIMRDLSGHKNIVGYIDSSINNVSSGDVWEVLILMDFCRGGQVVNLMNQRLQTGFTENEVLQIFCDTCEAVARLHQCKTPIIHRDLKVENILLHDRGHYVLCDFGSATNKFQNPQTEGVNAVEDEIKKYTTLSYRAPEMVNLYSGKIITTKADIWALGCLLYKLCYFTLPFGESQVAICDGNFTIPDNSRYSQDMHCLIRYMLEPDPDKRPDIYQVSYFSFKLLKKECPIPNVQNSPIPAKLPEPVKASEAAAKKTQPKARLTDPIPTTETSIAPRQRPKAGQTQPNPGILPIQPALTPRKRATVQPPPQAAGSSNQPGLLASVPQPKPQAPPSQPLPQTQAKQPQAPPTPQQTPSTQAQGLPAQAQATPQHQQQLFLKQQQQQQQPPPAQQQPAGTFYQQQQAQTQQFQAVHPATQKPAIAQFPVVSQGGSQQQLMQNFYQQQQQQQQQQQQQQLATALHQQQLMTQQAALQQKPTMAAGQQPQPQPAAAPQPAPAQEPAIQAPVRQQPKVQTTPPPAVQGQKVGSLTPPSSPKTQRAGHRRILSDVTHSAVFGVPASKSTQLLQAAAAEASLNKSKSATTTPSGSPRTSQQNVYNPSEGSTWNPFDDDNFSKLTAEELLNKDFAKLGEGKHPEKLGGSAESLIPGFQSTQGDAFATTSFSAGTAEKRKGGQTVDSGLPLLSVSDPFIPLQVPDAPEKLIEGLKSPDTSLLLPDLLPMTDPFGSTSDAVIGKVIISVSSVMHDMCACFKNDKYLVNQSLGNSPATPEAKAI

SMILES | IC50 [1] [nM] | IC50 (Table 1 imidazo[1,2-b]pyridazines) [nM]
COCCOC(=O)N1CCN(c2ccn3ncc(-c4ccccc4OC)c3n2)CC1 | ≤ 10 | –
COc1ncccc1-c1cnn2ccc(N3CCN(S(=O)(=O)CC(C)C)CC3)nc12 | ≤ 100 | –
COc1ncccc1-c1cnn2ccc(N(CCCC(F)(F)F)C(C)=O)nc12 | ≤ 1000 | –
CC(C)(C)CCN1C(=O)CC[C@H]1CNc1ccn2ncc(-c3ccccc3)c2n1 | ≤ 10 | –
CN(C(=O)CC1CC1)[C@H]1CCN(c2ccn3ncc(-c4ccccn4)c3n2)C1 | ≤ 100 | –
COc1ccccc1-c1cnn2ccc(N3CC[C@H](N(C)C(=O)CC(F)(F)F)C3)nc12 | ≤ 100 | –
CN(C(=O)CC(F)(F)F)[C@H]1CCN(c2ccn3ncc(Br)c3n2)C1 | ≤ 100 | –
CN(C(=O)N1CCCC1)[C@H]1CCN(c2ccn3ncc(Br)c3n2)C1 | ≤ 100 | –
CN(C(=O)N1CCCC1)[C@H]1CCN(c2ccc3ncc(-c4ccccn4)n3n2)C1 | – | ≤ 100
CCCC(=O)N(C)[C@H]1CCN(c2ccn3ncc(-c4ccccn4)c3n2)C1 | ≤ 1000 | –
COc1ccccc1-c1cnn2ccc(N3CC[C@H](N(C)C(=O)OC(C)C)C3)nc12 | ≤ 100 | –
CC(C)OC(=O)N(C)[C@H]1CCN(c2ccn3ncc(-c4ccncc4)c3n2)C1 | ≤ 100 | –
CCOC(=O)c1cnn2ccc(N3CCN(C(=O)OC(C)C)CC3)nc12 | ≤ 100 | –
COc1ncccc1-c1cnn2ccc(N3CCN(C(=O)OC(C)C)C(C)(C)C3)nc12 | ≤ 100 | –
CCNC(=O)c1cnn2ccc(N3CCN(C(=O)OC(C)C)CC3)nc12 | ≤ 100 | –
CC(C)NC(=O)c1cnn2ccc(N3CCN(C(=O)OC(C)C)CC3)nc12 | ≤ 1000 | –
CNC(=O)c1cnn2ccc(N3CCN(C(=O)OC(C)C)CC3)nc12 | ≤ 100 | –
COc1ncccc1-c1cnn2ccc(N3CC(N(C)C(=O)OC(C)C)C3)nc12 | ≤ 100 | –
CC(C)(C)OC(=O)N1CC=C(c2ccn3nccc3n2)CC1 | ≤ 100 | –
COc1ncccc1-c1cnn2ccc(N3CC(N(C)C(=O)OC(C)(C)C)C3)nc12 | ≤ 1000 | –

Other lines, results leading:

IC50 [1] [nM] | IC50 (Table 1 imidazo[1,2-b]pyridazines) [nM] | SMILES
≤ 100 | – | CC(C)Cn1cc(-c2cnn3ccc(N4CCN(C(=O)OC(C)C)CC4)nc23)cn1
≤ 100 | – | Cc1nn(C)c(C)c1-c1cnn2ccc(N3CCN(C(=O)OC(C)C)CC3)nc12
≤ 10 | – | CCOc1cccc(-c2cnn3ccc(N4CCN(C(=O)OC(C)C)CC4)nc23)c1
≤ 100 | – | CC(C)OC(=O)N1CCN(c2ccn3ncc(-c4cnccc4F)c3n2)CC1
≤ 10 | – | COc1ccnc(-c2cnn3ccc(N4CCN(C(=O)OC(C)C)CC4)nc23)c1
≤ 100 | – | CC(C)OC(=O)N1CCN(c2ccn3ncc(-c4cnccn4)c3n2)CC1
≤ 10 | – | CC(C)OC(=O)N1CCN(c2ccn3ncc(-c4cccnc4)c3n2)CC1
≤ 100 | – | CC(C)OC(=O)N1CCN(c2ccn3ncc(-c4cncnc4)c3n2)CC1
≤ 100 | – | CC(C)OC(=O)N1CCN(c2ccn3ncc(C(C)C)c3n2)CC1
≤ 10 | – | CC(C)OC(=O)N1CCN(c2ccn3nccc3n2)CC1
